Measured values taken from ChEMBL document CHEMBL5104162, “Potent inhibitory activity of hydroxylated 2-benzylidene-3,4-dihydronaphthalen-1(2H)-ones on LPS-stimulated reactive oxygen species production in RAW 264.7 macrophages” (Bioorg Med Chem Lett, 2022).

Legend:
[1] = Cytotoxicity against mouse RAW264.7 cells assessed as cell viability at 10 uM by MTS assay relative to control
RAW264.7 = assay: Inhibition of ROS production in LPS-induced mouse RAW264.7 cells; format: functional, cell-based

| Compound | IC50 (RAW264.7) | viability at 10 µM [1] |
| --- | --- | --- |
| O=C1/C(=C/c2ccc(O)cc2)CCc2cc(O)ccc21 | – | < 90% |
| O=C1/C(=C/c2cccc(O)c2)CCc2c(O)cccc21 | – | < 90% |
| O=C1/C(=C/c2ccccc2)CCc2c(O)cccc21 | – | < 90% |
| O=C1/C(=C/c2ccc(O)cc2)CCc2ccc(O)cc21 | – | < 90% |
| O=C1/C(=C/c2ccc(Cl)cc2)CCc2cc(O)ccc21 | 2.48 µM | > 90% |
| O=C1/C(=C/c2ccc(F)cc2)CCc2cc(O)ccc21 | 1.37 µM | > 90% |
| O=C1/C(=C/c2cccc(OC(F)(F)F)c2)CCc2cc(O)ccc21 | 0.52 µM | > 90% |
| O=C1/C(=C/c2ccc(Br)cc2)CCc2cc(O)ccc21 | 1.52 µM | > 90% |
| O=C1/C(=C/c2ccccc2OC(F)(F)F)CCc2cc(O)ccc21 | – | < 90% |
| O=C1/C(=C/c2ccccc2C(F)(F)F)CCc2cc(O)ccc21 | – | < 90% |
| O=C1/C(=C/c2ccc(Br)cc2)CCc2ccc(O)cc21 | 0.8 µM | > 90% |
| O=C1/C(=C/c2cccc(OC(F)(F)F)c2)CCc2c(O)cccc21 | – | < 90% |
| O=C1/C(=C/c2ccc(C(F)(F)F)cc2)CCc2cc(O)ccc21 | 3.26 µM | > 90% |
| O=C1/C(=C/c2ccc(O)cc2)CCc2c(O)cccc21 | – | < 90% |
| O=C1/C(=C/c2ccc(F)cc2)CCc2ccc(O)cc21 | 0.84 µM | > 90% |
| O=C1/C(=C/c2ccc(C(F)(F)F)cc2)CCc2ccc(O)cc21 | > 10 µM | > 90% |
| O=C1/C(=C/c2ccc(Cl)cc2)CCc2c(O)cccc21 | – | < 90% |

| Compound | IC50 (RAW264.7) | viability at 10 µM [1] |
| --- | --- | --- |
| O=C1/C(=C/c2ccc(OC(F)(F)F)cc2)CCc2c(O)cccc21 | – | < 90% |
| O=C1/C(=C/c2ccc(OC(F)(F)F)cc2)CCc2cc(O)ccc21 | 1.35 µM | > 90% |
| O=C1/C(=C/c2ccccc2F)CCc2c(O)cccc21 | – | < 90% |
| O=C1/C(=C/c2cccc(Cl)c2)CCc2c(O)cccc21 | – | < 90% |
| O=C1/C(=C/c2ccc(Br)cc2)CCc2c(O)cccc21 | – | < 90% |
| O=C1/C(=C/c2ccccc2O)CCc2c(O)cccc21 | – | < 90% |
| O=C1/C(=C/c2cccc(C(F)(F)F)c2)CCc2cc(O)ccc21 | 0.18 µM | > 90% |
| O=C1/C(=C/c2ccc(F)cc2)CCc2c(O)cccc21 | – | < 90% |
| O=C1/C(=C/c2cccc(OC(F)(F)F)c2)CCc2ccc(O)cc21 | – | < 90% |
| O=C1/C(=C/c2cccc(C(F)(F)F)c2)CCc2ccc(O)cc21 | – | < 90% |
| O=C1/C(=C/c2ccc(OC(F)(F)F)cc2)CCc2ccc(O)cc21 | 0.98 µM | > 90% |
| O=C1/C(=C/c2ccc(Cl)cc2)CCc2ccc(O)cc21 | 1.1 µM | > 90% |
| O=C1/C(=C/c2ccccc2OC(F)(F)F)CCc2c(O)cccc21 | – | < 90% |
| O=C1/C(=C/c2ccccc2O)CCc2ccc(O)cc21 | – | < 90% |
| O=C1/C(=C/c2ccc(C(F)(F)F)cc2)CCc2c(O)cccc21 | – | < 90% |
| O=C1/C(=C/c2ccccn2)CCc2ccc(O)cc21 | – | < 90% |
| O=C1/C(=C/c2cccc(F)c2)CCc2c(O)cccc21 | – | < 90% |

More lines, main results first:

| IC50 (RAW264.7) | Compound | viability at 10 µM [1] |
| --- | --- | --- |
| 2.34 µM | O=C1/C(=C/c2ccncc2)CCc2ccc(O)cc21 | > 90% |
| 1.07 µM | O=C1/C(=C/c2ccccc2Br)CCc2cc(O)ccc21 | > 90% |
| 0.83 µM | O=C1/C(=C/c2cccc(F)c2)CCc2ccc(O)cc21 | > 90% |
| 0.5 µM | O=C1/C(=C/c2ccccc2Br)CCc2ccc(O)cc21 | > 90% |
| 1.97 µM | O=C1/C(=C/c2cccc(C(F)(F)F)c2)CCc2c(O)cccc21 | > 90% |
| 0.27 µM | O=C1/C(=C/c2ccccc2Cl)CCc2ccc(O)cc21 | > 90% |
| 3.04 µM | O=C1/C(=C/c2cccnc2)CCc2ccc(O)cc21 | > 90% |
| 1.7 µM | O=C1/C(=C/c2cccc(Br)c2)CCc2c(O)cccc21 | > 90% |
| 1.28 µM | O=C1/C(=C/c2ccccc2Cl)CCc2c(O)cccc21 | > 90% |
| 1.74 µM | O=C1/C(=C/c2ccccc2F)CCc2cc(O)ccc21 | > 90% |
| 0.48 µM | O=C1/C(=C/c2cccc(Br)c2)CCc2ccc(O)cc21 | > 90% |
| 1.02 µM | O=C1/C(=C/c2ccccc2C(F)(F)F)CCc2ccc(O)cc21 | > 90% |
| 0.74 µM | O=C1/C(=C/c2ccccn2)CCc2c(O)cccc21 | > 90% |
| 0.71 µM | O=C1/C(=C/c2ccccc2)CCc2ccc(O)cc21 | > 90% |
| > 10 µM | O=C1/C(=C/c2ccccn2)CCc2cc(O)ccc21 | > 90% |
| 0.21 µM | O=C1/C(=C/c2cccc(Cl)c2)CCc2ccc(O)cc21 | > 90% |

| IC50 (RAW264.7) | Compound | viability at 10 µM [1] |
| --- | --- | --- |
| 2.95 µM | O=C1/C(=C/c2cccnc2)CCc2c(O)cccc21 | > 90% |
| 1.23 µM | O=C1/C(=C/c2cccc(F)c2)CCc2cc(O)ccc21 | > 90% |
| 1.24 µM | O=C1/C(=C/c2ccccc2Br)CCc2c(O)cccc21 | > 90% |
| 3.51 µM | O=C1/C(=C/c2cccc(O)c2)CCc2cc(O)ccc21 | > 90% |
| 1.35 µM | O=C1/C(=C/c2ccccc2F)CCc2ccc(O)cc21 | > 90% |
| 1.91 µM | O=C1/C(=C/c2ccccc2Cl)CCc2cc(O)ccc21 | > 90% |
| 1.32 µM | O=C1/C(=C/c2ccccc2)CCc2cc(O)ccc21 | > 90% |
| 2.03 µM | O=C1/C(=C/c2cccnc2)CCc2cc(O)ccc21 | > 90% |
| 1.14 µM | O=C1/C(=C/c2cccc(Br)c2)CCc2cc(O)ccc21 | > 90% |
| 0.55 µM | O=C1/C(=C/c2ccccc2O)CCc2cc(O)ccc21 | > 90% |
| 0.42 µM | O=C1/C(=C/c2ccccc2OC(F)(F)F)CCc2ccc(O)cc21 | > 90% |
| 0.81 µM | O=C1/C(=C/c2cccc(O)c2)CCc2ccc(O)cc21 | > 90% |
| 3.83 µM | O=C1/C(=C/c2ccccc2C(F)(F)F)CCc2c(O)cccc21 | > 90% |
| 1.75 µM | O=C1/C(=C/c2cccc(Cl)c2)CCc2cc(O)ccc21 | > 90% |
| 4.17 µM | O=C1/C(=C/c2ccncc2)CCc2c(O)cccc21 | > 90% |
